Assay results taken from paper PMC11275179, “Superior Anticancer and Antifungal Activities of New Sulfanyl-Substituted Niclosamide Derivatives” (Biomedicines, 2024).

Key:
[1] = system: M. mycetomatis SO1 isolate; design: method as in PMID 34209118; settings: read-out: IC50 against the Somalian SO1 isolate; cited from earlier work
[2] = system: M. mycetomatis MM55 strain; experiment: In vitro susceptibility testing (MTS), MM55 strain; type: cell-based, Madurella mycetomatis; settings: Madurella mycetomatis, MM55STRAIN
Description: The antifungal activity of the compounds was tested against a geographically and genetically diverse set of M. mycetomatis isolates. These included the MM55 strain from Sudan, strains I1, I3, and […] from India, strain P1 from Mali, strain SO1 from Somalia, strain Peru72012 from Peru, and strain CBS247.48 whose country of origin was unknown. All isolates were originally obtained from patients and identified and maintained in the Erasmus Medical Centre, Rotterdam, The Netherlands. In vitro susceptibility testing was performed as reported previously. The only difference was that tetrazolium compound 3-(4,5-dimethylthiazol-2-yl)-5-(3-carboxymethoxyphenyl)-2-(4-sulfophenyl)-2H-tetrazolium salt (MTS) was used as a viability dye in endpoint reading instead of 2,3-bis-(2-methoxy-4-nitro-5-sulfophenyl)-2H-tetrazolium-5-carboxanilide salt (XTT).

[3] = system: β-catenin; experiment: Western blot, active non-phospho-β-catenin in EAC cells; type: cell-based; settings: SK-GT-4 1.5 µM and FLO-1 0.8 µM, 72 h
Description: (§1) A total of 500,000 FLO-1 and SK-GT-4 cells were seeded in 10 cm^2 dishes. After 24 h, cells were incubated with a vehicle, niclosamide analog 3a (IC50 concentration), and niclosamide (equivalent dose of 3a IC50 concentration). Then, 72 h post-treatment with the compounds, the media were removed to eliminate the dead/floating cells and washed with PBS. The cells were then scraped using a cell scraper in the lysis buffer containing a protease/phosphatase inhibitor cocktail (Thermo Scientific# A32959, Rockford, IL, USA). Further cells were lysed and sonicated using a probe sonicator (Fisher Scientific Model no FB120). The resulting lysates were centrifuged at 6500 rpm and 4 °C for 10 min. […] (Thermo Scientific, Rockford, IL, USA) method was used to estimate total protein levels in the prepared cell lysates, which were diluted with lysis buffer mixed with 2× Laemmli buffer (Biorad#1610737, Hercules, CA, USA) and boiled for 5 min at […]. Equal volumes of protein (50 μg) were used on the SDS-PAGE for separation using gel electrophoresis. […]

[4] = system: SK-GT-4 cells; experiment: Spheroid formation assay; type: cell-based; settings: 1.5 µM, SK-GT-4, 7 days
Description: In the ultra-low attachment plates (Corning, Lowell, MA, USA), 500 SK-GT-4 cells were seeded in each well with the spheroid media [DMEM medium supplemented with EGF (20 ng/mL), FGF (20 ng/mL), heparin (4 µg/mL), B27 (10 mL in 500 mL of 50×) (Invitrogen, Carlsbad, CA, USA), and antibiotic pen/strep (1%)]. After 24 h, spheroids were treated with 3a (IC50 dose) and an equivalent dose of niclosamide. Spheroids were counted after 7 days, and images were taken.

[5] = system: SK-GT-4 EAC cells; experiment: MTT proliferation assay, SK-GT-4 cells; type: cell-based; settings: SKGT4, 72 h, read-out: Antiproliferative activity IC50, SK-GT-4
Description: (§2) The FLO-1, SK-GT-4, and THP-1 cell lines were a gift from Dr. Shrikant Anant’s laboratory. Cells were grown in 10% fetal bovine serum (Fisher Scientific#FB12999102, Pittsburgh, PA, USA) and 1% antibiotic/antimycotic agent (Corning, Tewksbury, MA, USA) in RPMI 1640 media mixed with […] HEPES, L-glutamine (Corning, MA, USA). The cell lines were grown in a 5% CO2 incubator at 37 °C and used below 15 passages for the experiments.
(§3) The proliferation assay used a 3-(4,5-dimethylthiazol-2-yl)-2,5-diphenyltetrazolium bromide (MTT) assay. Briefly, 5000 FLO-1 and SK-GT-4 cells were counted and seeded in each well in 96-well plates. Post 24 h of incubation, EAC cells were treated with multiple concentrations (0–10 μM) of niclosamide (Cayman chemical#10649, Ann Arbor, MI, USA) and its analogs. At respective time points, 10 μL of stock MTT reagent (Millipore Sigma, Bedford, MA, USA) (3 mg/mL) was added to each well and incubated for 1–2 h under the dark at 37 °C. After incubation, the purple formazan crystals were dissolved in equal volumes of DMSO, and the absorbance of the resulting clear solutions was recorded at 570 nm using a microplate reader. A CCK-8 (Abcam, Cat no. ab228554, Burlingame, CA, USA) assay was used for the THP-1 cells. Briefly, 5000 cells were plated in every well of a 96-well plate. After 24 h of plating, THP-1 cells were treated with niclosamide and compound 3a. After the respective time point, an equal amount of CCK-8 reagent was pipetted to the wells and incubated for one hour in an incubator, and finally, the absorbance was recorded at 450 nm. The percent change in the proliferation was calculated by comparing the cell viability of the treated groups to the untreated control cells.

[6] = system: STAT3; experiment: Western blot, p-STAT3 and STAT3 in EAC cells; type: cell-based; settings: SK-GT-4 1.5 µM and FLO-1 0.8 µM, 72 h
Description: as §1

[7] = system: FLO-1 EAC cells; experiment: MTT proliferation assay, FLO-1 cells; type: cell-based; settings: FLO-1, 72 h, read-out: Antiproliferative activity IC50, FLO-1
Description: as §2, §3

[8] = system: SK-GT-4 and FLO-1 EAC cells; experiment: Colony formation assay; type: cell-based; settings: 1.5 µM (SK-GT-4) and 0.8 µM (FLO-1); both EAC cell lines
Description: In total, 500 SK-GT-4 and FLO-1 cells were seeded in each well of 6-well plates before 24 h treatment of niclosamide analog 3a IC50 concentration and an equivalent dose of niclosamide. The media was changed after 72 h with drug-free media to remove drug exposure and allow them to grow and form colonies for 10–12 days. At the end of the experiment, the colonies were washed using PBS three times, fixed with 10% formalin solution (Fisher Scientific#23-305510, Pittsburgh, PA, USA), and stained using a 1% crystal violet (Sigma-Aldrich#C6158, St. Louis, MO, USA) solution in 10% ethanol for 15 min. The colonies were then washed with water, dried at room temperature, counted, and imaged. The number of colonies in the treated cells was compared with untreated cells.

- IC50 ([2]; read-out: Antifungal activity IC50): 15 ± 1.6 µM
- IC90 ([2]; read-out: Antifungal activity IC90): 23.8 ± 0.1 µM
- IC50 [5]: 1770 ± 770 nM
Structure (SMILES): O=C(Nc1ccc([N+](=O)[O-])cc1Cl)c1cc(Cl)ccc1O [Niclosamide]
- IC50 [1]: 2380 nM
- Active (non-phosphorylated) β-catenin (Western blot) [3]: suppressed
- Inhibition of spheroid formation [4]: inhibit spheroid formation
- Activating phosphorylation of STAT3 at TYR705 (Western blot) [6]: inhibited activating STAT3 phosphorylation but not as strongly as 3a
- IC50 [7]: 1050 ± 280 nM
- Inhibition of colony formation [8]: slightly less efficient than 3a
